According to patent US10760052B2, “Method of inhibiting tau phosphorylation” (priority 2012, dated 2020):

Tests used:
α7nAChR = format: cell-based, human; conditions: AD and Aβ42-treated control brain slices
IL-6, TNF-α and IL-1β = assay: ICV Aβ42 infusion mouse model: cytokine levels (fluorescence ELISA); format: in vivo
Method: Following centrifugation, the resultant lysate was then dilute with 500 μl (total volume 600 μl) and used as the source of cytokines.
Plates were washed 3 times with ice-cold 50 mM Tris HCl (pH 7.4) and incubated at 30° C. with 100 μl of lysate derived from the above mentioned tissues for 1 hour.
Plates were washed 3 times with ice-cold 50 mM Tris HCl (pH 7.4) and incubated at 30° C. with 0.5 μg/well un-conjugated rabbit anti-TNF-α, anti-IL-6 and anti-IL-1β for 1 hour. After two washes with 50 mM Tris HCl (pH 7.4), each well was incubated in 0.5 μg/well FITC-conjugated anti-rabbit IgG (human and mouse absorbed) for 1 hour at 30° C. Plates were washed twice with 200 μl ice-cold Tris HCl, pH 7.4 and the residual FITC signals were determined by multimode plate reader, DTX880 (Beckman). Each lysate was surveyed twice.

Aβ42-α7nAChR complexes = assay: Postmortem human frontal cortex: Aβ42-α7nAChR complexes; format: cell-based; conditions: AD and Aβ42-treated control tissue; 0.1 and 1 nM
Method: Postmortem frontal cortex tissues were gradually thawed (from −80° C. to −20° C.) and were sliced using a chilled McIlwain tissue chopper (200 μm×200 μm×3 mm). […] Following two additional washes with 1 ml of ice-cold K-R, brain slices were suspended in 1 ml of K-R.
Incubation continued for 1 hour in the dark to minimize light destruction of the test agents. […] Reaction was terminated by the addition of 1.5 ml of ice-cold Ca^2+-free K-R. Tissue slices were harvested by a brief centrifugation and used as the tissue sources for various assays.

insulin receptor (IR) = assay: IR activation and signaling (pY1150/1151 IRβ, IRS-1) in slice cultures; format: cell-based, rat; conditions: insulin stimulation
Method: IR activation and signaling was initiated by incubation of 6 slices that were further chopped horizontally into 100 μm (100 μm×200 μm×3 mm) with either KR (basal) or KR containing 1 nM insulin at 37° C. for 30 minutes. […] Ligand stimulation was terminated by the addition of 1 ml of ice-cold Ca^2+-free K-R containing mixture of protein phosphatase inhibitors, 0.5 mM EGTA and 0.1 mM EDTA. Brain slices were harvested by a brief centrifugation and were homogenized in 0.25 ml of ice-cold immunoprecipitation buffer. The homogenates were centrifuged at 1000×g for 5 minutes (4° C.) and the supernatant (post-mitochondrial fraction) was sonicated for 10 seconds on ice. […] The resultant lysates were then cleared by centrifugation at 50,000×g for 5 minutes and diluted with 0.75 ml of immunoprecipitation buffer. Protein concentrations were measured by Bradford method (Bio-Rad).
In these experiments, brain slice lysates (100 μg) were immunoprecipitated overnight (about 18 hours) at 4° C. with 2 μg of immobilized anti-IRβ onto covalently conjugated protein A-agarose beads (Pierce-ENDOGEN). […]

NMDAR = assay: Levels of signaling molecules associated with NMDAR (NR1) in slice cultures; format: cell-based, rat; conditions: 0.1 μM Aβ42
Method: NMDAR activation and signaling was initiated by incubation of 6 slices with either 0.3 mM Mg^2+ containing KR (LMKR; basal) or LMKR containing 10 μM NMDA and 1 μM glycine at 37° C. for 30 minutes.
Ligand stimulation was terminated by the addition of 1 ml of ice-cold Ca^2+-free K-R containing mixture of protein phosphatase inhibitors, 0.5 mM EGTA and 0.1 mM EDTA. Brain slices were harvested by a brief centrifugation and were homogenized in 0.25 ml of ice-cold immunoprecipitation buffer. The homogenates were centrifuged at 1000×g for 5 minutes (4° C.) and the supernatant (post-mitochondrial fraction) was sonicated for 10 seconds on ice.
The resultant lysates were cleared by centrifugation at 50,000×g for 5 minutes and diluted with 0.75 ml of immunoprecipitation buffer. Protein concentrations were measured by Bradford method (Bio-Rad).
To determine the association of NMDARs with PSD-95, as well as NMDAR signaling, the levels of NMDAR subunits, PSD-95 and NMDAR-associated signaling molecules were measured in anti-NR1 immunoprecipitates. In these studies, brain slice lysates (100 μg) were immunoprecipitated overnight at 4° C. with 2 μg of immobilized anti-NR1 onto covalently conjugated protein A-agarose beads (Pierce-ENDOGEN). […]

Compound: CN1CCC2(CC1)NCC(=O)N2Cc1ccccc1 [Compound C0105]
- Functioning of α7nAChR (calcium influx after receptor stimulation) (α7nAChR): preserves functioning
- Aβ42-induced IL-6 production (IL-6, TNF-α and IL-1β; 10 mg/kg twice daily): completely abolished
- Suppression of IL-1β level (IL-6, TNF-α and IL-1β; 10 mg/kg twice daily): 80%
- Suppression of TNF-α level (IL-6, TNF-α and IL-1β; 10 mg/kg twice daily): 86%
- Decrease of levels of IL-6, TNF-α and IL-1 (IL-6, TNF-α and IL-1β; mice receiving C0105): 80-100%
- Aβ42-α7nAChR complexes (Aβ42-α7nAChR complexes): reduces Aβ42-α7nAChR complexes
- Aβ42-induced IR signaling impairments (IRS-1 association, pY1150/1151 IRβ) (insulin receptor (IR)): normalized the signaling impairments
- Levels of six signaling molecules associated with NR1 after NMDA and glycine (NMDAR): fully restored function
